Assay [1] deals with T1, Choline O-acetyltransferase (Gallus gallus, UniProt Q90YJ9).
T1 sequence (Q90YJ9 whole entry): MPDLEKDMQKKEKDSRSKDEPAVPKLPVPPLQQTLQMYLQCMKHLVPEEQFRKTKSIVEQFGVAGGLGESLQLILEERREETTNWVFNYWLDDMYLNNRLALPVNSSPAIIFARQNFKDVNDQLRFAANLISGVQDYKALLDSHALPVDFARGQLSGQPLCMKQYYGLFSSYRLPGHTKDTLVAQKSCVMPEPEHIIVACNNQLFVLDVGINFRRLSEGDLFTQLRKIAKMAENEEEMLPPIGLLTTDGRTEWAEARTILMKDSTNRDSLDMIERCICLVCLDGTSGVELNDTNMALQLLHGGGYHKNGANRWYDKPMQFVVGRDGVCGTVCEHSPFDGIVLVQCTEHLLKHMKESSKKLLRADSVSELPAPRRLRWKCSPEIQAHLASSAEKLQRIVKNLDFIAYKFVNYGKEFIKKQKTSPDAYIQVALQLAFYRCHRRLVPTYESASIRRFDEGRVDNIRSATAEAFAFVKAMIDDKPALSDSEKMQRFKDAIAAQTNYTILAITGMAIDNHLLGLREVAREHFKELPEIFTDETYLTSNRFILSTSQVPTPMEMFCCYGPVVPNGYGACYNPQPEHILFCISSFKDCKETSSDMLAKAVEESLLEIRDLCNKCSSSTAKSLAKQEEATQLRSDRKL
Description: Compound was tested in vitro for inhibitory activity against chick optic lobe choline acetyltransferase (ChAT).

Assay [2] deals with T2, Choline O-acetyltransferase (Gallus gallus) (UniProt Q90YJ9).
T2 sequence (whole entry): T1 sequence (Q90YJ9 whole entry)
The assay is described as follows: Inhibition of chick optic lobe choline acetyltransferase (ChAT) at 10e-4 M.

Assay [3] has as its target T1, Choline O-acetyltransferase. The assay is described as follows: Compound was tested in vitro for inhibitory activity against chick choline acetyltransferase (ChAT).
For assay [4], the target named is T3, Choline O-acetyltransferase (Rattus norvegicus, UniProt P32738).
T3 sequence (P32738 whole entry): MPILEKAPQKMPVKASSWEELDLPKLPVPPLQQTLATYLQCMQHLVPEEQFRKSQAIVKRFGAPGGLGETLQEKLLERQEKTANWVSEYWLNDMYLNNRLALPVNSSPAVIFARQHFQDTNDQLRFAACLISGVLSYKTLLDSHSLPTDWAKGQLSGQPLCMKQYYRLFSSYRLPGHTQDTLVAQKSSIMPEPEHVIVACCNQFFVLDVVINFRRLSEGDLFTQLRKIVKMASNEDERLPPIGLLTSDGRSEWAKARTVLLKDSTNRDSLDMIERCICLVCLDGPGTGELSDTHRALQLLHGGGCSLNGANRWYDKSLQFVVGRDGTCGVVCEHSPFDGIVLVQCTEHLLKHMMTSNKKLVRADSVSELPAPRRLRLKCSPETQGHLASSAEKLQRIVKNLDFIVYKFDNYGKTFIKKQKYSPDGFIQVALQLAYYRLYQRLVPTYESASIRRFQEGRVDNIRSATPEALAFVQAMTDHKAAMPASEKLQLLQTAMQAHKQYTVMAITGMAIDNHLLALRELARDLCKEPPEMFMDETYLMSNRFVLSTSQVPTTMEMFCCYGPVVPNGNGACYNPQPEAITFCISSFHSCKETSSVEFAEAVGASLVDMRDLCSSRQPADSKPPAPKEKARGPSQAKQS
Description: Compound was tested in vitro for inhibitory activity against rat choline acetyltransferase (ChAT).

The term IC50 denotes the point on the concentration scale where inhibition reaches its midpoint. Low values mean higher potency, high ones lower potency. As usually defined, the inhibition is how much of the control response was suppressed. With `NC(=O)C[n+]1ccc(/C=C/c2cccc3ccccc23)cc1`, the IC50 in assay [1] stood at 37 µM. The molecule also came in with an inhibition in assay [2] of 78%.

Molecule `Cc1cc2nc(/C=C/c3cc[n+](C)cc3)[nH]c2cc1C` had an inhibition in assay [2] below 1%.

`C[n+]1ccc(/C=C/c2cccc3ccccc23)cc1`: 40 µM corresponded to half-maximal inhibition in assay [1] (IC50). In assay [2], this molecule had an inhibition of 73%.

Take `CCCC[n+]1cccc(/C=C/c2nc3cc(C)c(C)cc3[nH]2)c1`: the inhibition in assay [2] is below 1%.

`CCC[n+]1ccc(/C=C/c2cccc3ccccc23)cc1`: the figures for the IC50 in assay [1], in assay [3] and in assay [4] were 29 µM, 58 µM and 30 µM, respectively. The inhibition in assay [2] turned out to be 80%.

For the molecule `C[n+]1ccc(/C=N/c2nc3ccccc3[nH]2)cc1`, in assay [2], the inhibition was below 1%.

In assay [2], `CCCCCCCCCC[n+]1ccc(/C=C/c2nc3cc(C)c(C)cc3[nH]2)cc1` came in with an inhibition below 1%.

`Cc1cc2nc(/C=C/c3ccncc3)[nH]c2cc1C`: the inhibition in assay [2] is below 1%.

In assay [2], `Cc1cc2nc(/C=C/c3ccc[n+](C)c3)[nH]c2cc1C` came in with an inhibition below 1%.

As to `Cc1cc2nc(/C=C/c3cccnc3)[nH]c2cc1C`, the inhibition in assay [2] was below 1%.

In assay [2], `CCCC[n+]1ccc(/C=C/c2nc3cc(C)c(C)cc3[nH]2)cc1` gave an inhibition below 1%.

`CCCC[n+]1ccc(/C=C/c2ncc[nH]2)cc1`: the inhibition in assay [2] was below 1%.

In turn, `C(=C\c1cccc2ccccc12)/c1ccncc1` displayed an inhibition in assay [2] of 5%.

The values are drawn from ChEMBL document CHEMBL1126369, “(E)-1-alkyl-[2-(1H-azol-2-yl)vinyl]pyridinium salts: theoretical analysis, synthesis and evaluation of their interaction with choline acetyltransferase” (Bioorg Med Chem Lett, 1992).
